According to article PMC4876444, “Two-Photon Enzymatic Probes Visualizing Sub-cellular/Deep-brain Caspase Activities in Neurodegenerative Models” (Scientific Reports, 2016):

Columns and labels:
[1] = test system: NIH/3T3, BV2 and HeLa cells; test: XTT cytotoxicity assay; assay type: cell-based, mouse, human; settings: XTT assay, 12, 30, 60, 120 μM, 24 h
Method: Supplementary Figure 4. Cytotoxicity of two-photon enzymatic probes (12, 30, 60, 120 μM) in mammalian cells (NIH/3T3, BV2 and HeLa) after incubation for 24 h, as determined by XTT assay. […]
Detection of caspase activities in mammalian cells and tissues
Cell culture. The mouse embryonic fibroblast cell line (NIH/3T3), mouse microglial cell line (BV2) and human epithelial carcinoma cell line (HeLa) used in our experiments were cultured in Dulbecco’s Modified Eagle's Medium (DMEM) supplemented with 10% (for NIH/3T3 and HeLa) or 5% (for BV2) fetal bovine serum (FBS), 100.0 mg/L streptomycin and 100 IU/mL penicillin in a humidified atmosphere of 5% CO2 at 37 °C.
XTT assay. The cytotoxicity of our probes was determined by using the XTT colorimetric cell proliferation kit (Roche) following manufacturer’s guidelines. Briefly, NIH/3T3, BV2 and HeLa cells were seeded in 20~30% confluency (since they will reach >50% confluency within 24 h) into 96-well plates and incubated overnight before the addition of probes with concentrations of 12 μM, 30 μM, 60 μM and 120 μM, respectively. Probes were applied from DMSO stocks whereby DMSO never exceeded 1% in the final solution. The same volume of DMSO was used as a negative control; and the same volume of STS (200 nM) was used as a positive control. After a total treatment time of 24 h, proliferation was assayed using the XTT assay (Supplementary Fig. 4). […]

[2] = test system: caspase-3/-7-like activities in brain slices; test: TPFM of caspase-3 activation in brain slices of ethanol-intoxicated mouse; settings: 200-μm-thick brain sections of ethanol-intoxicated 7-day-old C57BL/6 mice, probe 120 μM, 3 h, 37 °C, Z-axis scanning TPFM
Method: Figure 4 Imaging endogenous caspase activities in deep tissues. (a) TPFM of caspase-3 activation in brain slices of ethanol-intoxicated 7-day-old C57BL/6 mouse using C3RA (120 μM, 3 h). Top: 3D images of the mouse brain slice taken along the Z-axis from 0 to 160 μm at 10x magnification. Bottom: images taken at a depth of 120 μm at 40x magnification. […]: control slices (saline-treated); panels 2/6/4/8: treated with caspase-3/7 inhibitor I (200 μM, 3 h). Scale bar = 50 μm. (b) RFU readings extracted from (a) (FTPFM, blue bars) versus those from in vitro enzymatic assays using lysates from the same brain slices (RFU, orange bars). The signal from saline controls was set as “0” and that from ethanol-treated samples was set as “1” in RFU quantification. Due to the base-level active caspase-3 in the saline controls, negative readings were shown with inhibitor-treated samples. (c) WB analysis of caspase-3/-1/-8 activation in lysates of the same mouse brain slices shown in (a). (d) Normalized RFU readings from in vitro enzymatic assays using brain lysates (300 μg) of saline/ethanol treated mice after incubation with C1RB/C3RA/C8RA (6 μM) for 1 h at 37 °C.
All two-photon images were taken on a Leica TCS SP5X Confocal Microscope System. […]

CC(=O)N[C@@H](CC(=O)O)C(=O)N[C@@H](CCC(=O)O)C(=O)N[C@H](C(=O)N[C@@H](CC(=O)O)C(=O)Nc1ccc2cc(C(C)=O)ccc2c1)C(C)C [C3RA, Ac-DEVD-AAN]
cytotoxicity [1]: minimally cytotoxic
tissue depth of detection of caspase-3/-7-like activities [2]: ≤ 160 μm
